Results reported in paper PMC8129716 (CPT: Pharmacometrics & Systems Pharmacology, 2021).
≈ marks a conversion by molar mass, not a printed value.

Legend:
[1] = pKa; format: physicochemical
[2] = target: P‐gp (Homo sapiens, UniProt P08183); assay: transporter substrate assessment; format: in vitro ADME
[3] = system: CYP2C8; assay: CYP2C8 induction in vitro; format: in vitro ADME, human
[4] = system: CYP2C9; conditions: zanubrutinib 320 mg total daily dose, cocktail; cited from earlier work
[5] = system: CYP2C9; assay: CYP2C9 induction in vitro; format: in vitro ADME, human
[6] = system: CYP2C19; assay: CYP2C19 induction in vitro; format: in vitro ADME, human
[7] = target: T1, OATP1B3 (Homo sapiens, UniProt Q9NPD5); assay: transporter substrate/inhibitor assessment; format: in vitro ADME
T1 sequence (Q9NPD5 1-702): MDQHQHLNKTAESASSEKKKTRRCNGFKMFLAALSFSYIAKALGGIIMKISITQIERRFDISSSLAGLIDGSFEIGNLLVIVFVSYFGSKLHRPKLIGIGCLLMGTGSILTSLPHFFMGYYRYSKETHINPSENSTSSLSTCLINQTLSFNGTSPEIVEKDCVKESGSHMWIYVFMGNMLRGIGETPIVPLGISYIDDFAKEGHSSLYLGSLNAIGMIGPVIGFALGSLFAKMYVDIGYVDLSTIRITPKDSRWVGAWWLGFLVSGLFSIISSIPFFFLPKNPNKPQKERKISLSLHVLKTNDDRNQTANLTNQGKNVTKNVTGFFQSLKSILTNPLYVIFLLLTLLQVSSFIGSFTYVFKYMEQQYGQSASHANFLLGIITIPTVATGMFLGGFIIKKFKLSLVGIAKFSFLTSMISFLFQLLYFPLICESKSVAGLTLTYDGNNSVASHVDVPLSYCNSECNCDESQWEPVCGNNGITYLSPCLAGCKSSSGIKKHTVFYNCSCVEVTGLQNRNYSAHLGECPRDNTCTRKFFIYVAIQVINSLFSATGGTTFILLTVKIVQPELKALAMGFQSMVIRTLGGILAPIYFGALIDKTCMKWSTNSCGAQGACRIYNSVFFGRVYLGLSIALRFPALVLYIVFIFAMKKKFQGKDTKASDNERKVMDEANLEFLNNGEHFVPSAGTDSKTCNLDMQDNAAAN

[8] = target: T2, OAT1 (Homo sapiens, UniProt Q4U2R8); assay: transporter substrate/inhibitor assessment; format: in vitro ADME
T2 sequence (Q4U2R8 1-563): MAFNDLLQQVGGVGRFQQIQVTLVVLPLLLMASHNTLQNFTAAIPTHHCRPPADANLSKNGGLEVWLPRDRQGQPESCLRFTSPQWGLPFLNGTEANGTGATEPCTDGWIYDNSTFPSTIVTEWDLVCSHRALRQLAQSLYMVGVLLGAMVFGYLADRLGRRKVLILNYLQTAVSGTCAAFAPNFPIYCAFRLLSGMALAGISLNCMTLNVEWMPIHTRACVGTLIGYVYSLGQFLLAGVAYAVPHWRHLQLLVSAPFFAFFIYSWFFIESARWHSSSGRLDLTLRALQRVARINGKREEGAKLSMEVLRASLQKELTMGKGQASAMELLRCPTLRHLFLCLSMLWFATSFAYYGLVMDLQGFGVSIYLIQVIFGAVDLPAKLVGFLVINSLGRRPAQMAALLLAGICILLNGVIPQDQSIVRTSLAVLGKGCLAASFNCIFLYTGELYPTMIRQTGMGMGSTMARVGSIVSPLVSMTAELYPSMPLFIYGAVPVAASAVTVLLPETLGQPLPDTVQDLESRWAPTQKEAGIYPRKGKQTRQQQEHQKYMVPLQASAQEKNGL

[9] = logP; format: physicochemical; conditions: octanol/water
[10] = system: CYP2B6; assay: CYP2B6 induction in vitro; format: in vitro ADME, human
[11] = measured solubility at different pH levels; format: physicochemical
[12] = fraction of unbound drug in plasma; format: in vitro ADME
[13] = human liver microsome intrinsic clearance; format: in vitro ADME; conditions: liver microsomes

P‐gp, sequence (P08183 whole entry): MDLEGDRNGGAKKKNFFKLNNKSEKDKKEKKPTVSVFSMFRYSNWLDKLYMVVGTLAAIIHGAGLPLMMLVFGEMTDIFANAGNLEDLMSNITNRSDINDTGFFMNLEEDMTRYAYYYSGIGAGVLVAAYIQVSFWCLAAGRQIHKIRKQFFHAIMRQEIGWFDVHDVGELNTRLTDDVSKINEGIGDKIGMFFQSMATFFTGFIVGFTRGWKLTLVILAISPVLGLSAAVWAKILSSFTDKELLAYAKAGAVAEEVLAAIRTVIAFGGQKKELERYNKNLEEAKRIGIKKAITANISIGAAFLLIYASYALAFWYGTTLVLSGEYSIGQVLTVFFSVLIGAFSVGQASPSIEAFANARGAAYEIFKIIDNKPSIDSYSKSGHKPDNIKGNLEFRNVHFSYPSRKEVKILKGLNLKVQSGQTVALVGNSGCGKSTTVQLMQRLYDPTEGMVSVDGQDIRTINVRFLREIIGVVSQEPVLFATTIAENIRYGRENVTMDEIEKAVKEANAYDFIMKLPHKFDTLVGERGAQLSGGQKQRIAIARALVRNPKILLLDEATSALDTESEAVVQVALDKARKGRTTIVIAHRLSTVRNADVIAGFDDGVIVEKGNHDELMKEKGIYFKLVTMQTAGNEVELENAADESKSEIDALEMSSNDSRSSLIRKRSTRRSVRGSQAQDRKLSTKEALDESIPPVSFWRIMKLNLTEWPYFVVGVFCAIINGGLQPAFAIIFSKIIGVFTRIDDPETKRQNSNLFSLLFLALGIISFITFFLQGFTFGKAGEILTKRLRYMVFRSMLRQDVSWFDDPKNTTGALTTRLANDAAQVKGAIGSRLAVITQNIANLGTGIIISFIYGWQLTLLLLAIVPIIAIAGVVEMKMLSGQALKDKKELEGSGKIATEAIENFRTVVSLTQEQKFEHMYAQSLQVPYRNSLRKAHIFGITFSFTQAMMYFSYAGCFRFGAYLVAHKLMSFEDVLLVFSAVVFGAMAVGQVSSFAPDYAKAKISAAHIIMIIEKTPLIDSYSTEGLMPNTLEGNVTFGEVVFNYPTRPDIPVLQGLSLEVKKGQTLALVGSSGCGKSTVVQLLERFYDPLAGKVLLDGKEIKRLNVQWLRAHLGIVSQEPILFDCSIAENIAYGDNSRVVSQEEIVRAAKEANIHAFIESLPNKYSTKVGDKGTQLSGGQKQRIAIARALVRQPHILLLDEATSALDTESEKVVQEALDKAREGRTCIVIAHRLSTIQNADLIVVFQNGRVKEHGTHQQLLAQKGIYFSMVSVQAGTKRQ

## C=CC(=O)N1CCC([C@@H]2CCNc3c(C(N)=O)c(-c4ccc(Oc5ccccc5)cc4)nn32)CC1 [zanubrutinib, Zanubrutinib]
[1]
  pKa: […]
[2]
  P-gp substrate: likely to be a substrate
[3]; 0.3 μM
  increase of CYP2C8 activity: […]
[3]; 3 μM
  increase of CYP2C8 activity: […]
[3]; 30 μM
  increase of CYP2C8 activity: […]
[3]; Emax model on activity data
  Indmax CYP2C8: […]
[3]; human, hepatocytes
  EC50: […]
[4]
  effect on the activity of CYP2C9, BCRP and P-gp: minimal or no effect
[5]; 0.3 μM
  increase of CYP2C9 activity: […]
[5]; 3 μM
  increase of CYP2C9 activity: […]
[5]; 30 μM
  increase of CYP2C9 activity: […]
[5]; Emax model on activity data
  Indmax CYP2C9: […]
[5]; human, hepatocytes
  EC50: […]
[6]; 0.3 μM
  increase of CYC2C19 activity: […]
[6]; 3 μM
  increase of CYC2C19 activity: […]
[6]; 30 μM
  increase of CYC2C19 activity: […]
[6]; human, hepatocytes
  EC50: […]
[7]
  substrate or inhibitor of OATP1B3: not a substrate or inhibitor
[8]
  substrate or inhibitor of OAT1: not a substrate or inhibitor
[9]
  logP: […]
[10]; 0.3 μM
  increase of CYP2B6 mRNA levels: […]
[10]; 3 μM
  increase of CYP2B6 mRNA levels: […]
[10]; 30 μM
  increase of CYP2B6 mRNA levels: […]
[10]; Emax model
  Indmax CYP2B6: […]
[10]; human, hepatocytes
  EC50: […]
[10]; per FDA DDI guidance, from in vitro data
  R3 (CYP2B6 induction potential): […]
[11]; pH 1.2
  solubility: 247 µg/mL (≈ 524 µM)
[11]; pH 4.5
  solubility: […]
[11]; pH 6.8
  solubility: 54 µg/mL (≈ 115 µM)
[11]; pH 7.4
  solubility: 52 µg/mL (≈ 110 µM)
[12]
  fraction unbound: […]
[13]
  microsomal CLint: […]
